From US9902702B2, “Spirocycloheptanes as inhibitors of rock” (BRISTOL-MYERS SQUIBB COMPANY, priority 2014, dated 2018)

target: ROCK2 (Homo sapiens, UniProt O75116); experiment: ROCK assay: phosphorylation of FITC peptide substrate, LABCHIP 3000 mobility shift; type: biochemical; settings: 5 μM ATP, 1.5 μM peptide substrate; read-out: ROCK2 Activity (ROCK IC50 range)
Method in brief: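 IC50 values come from curve-fitting percent kinase inhibition across a compound dilution series. The reaction is started with Rho kinase variant in HEPES pH 7.5 buffer with MgCl2, Brij-35 and DTT, with 5 μM ATP, 1.5 μM FITC-labelled peptide and under 2% DMSO. After EDTA quench, product and substrate are separated by microfluidic mobility shift.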

Sequence of ROCK2 (O75116 whole entry, species assumed): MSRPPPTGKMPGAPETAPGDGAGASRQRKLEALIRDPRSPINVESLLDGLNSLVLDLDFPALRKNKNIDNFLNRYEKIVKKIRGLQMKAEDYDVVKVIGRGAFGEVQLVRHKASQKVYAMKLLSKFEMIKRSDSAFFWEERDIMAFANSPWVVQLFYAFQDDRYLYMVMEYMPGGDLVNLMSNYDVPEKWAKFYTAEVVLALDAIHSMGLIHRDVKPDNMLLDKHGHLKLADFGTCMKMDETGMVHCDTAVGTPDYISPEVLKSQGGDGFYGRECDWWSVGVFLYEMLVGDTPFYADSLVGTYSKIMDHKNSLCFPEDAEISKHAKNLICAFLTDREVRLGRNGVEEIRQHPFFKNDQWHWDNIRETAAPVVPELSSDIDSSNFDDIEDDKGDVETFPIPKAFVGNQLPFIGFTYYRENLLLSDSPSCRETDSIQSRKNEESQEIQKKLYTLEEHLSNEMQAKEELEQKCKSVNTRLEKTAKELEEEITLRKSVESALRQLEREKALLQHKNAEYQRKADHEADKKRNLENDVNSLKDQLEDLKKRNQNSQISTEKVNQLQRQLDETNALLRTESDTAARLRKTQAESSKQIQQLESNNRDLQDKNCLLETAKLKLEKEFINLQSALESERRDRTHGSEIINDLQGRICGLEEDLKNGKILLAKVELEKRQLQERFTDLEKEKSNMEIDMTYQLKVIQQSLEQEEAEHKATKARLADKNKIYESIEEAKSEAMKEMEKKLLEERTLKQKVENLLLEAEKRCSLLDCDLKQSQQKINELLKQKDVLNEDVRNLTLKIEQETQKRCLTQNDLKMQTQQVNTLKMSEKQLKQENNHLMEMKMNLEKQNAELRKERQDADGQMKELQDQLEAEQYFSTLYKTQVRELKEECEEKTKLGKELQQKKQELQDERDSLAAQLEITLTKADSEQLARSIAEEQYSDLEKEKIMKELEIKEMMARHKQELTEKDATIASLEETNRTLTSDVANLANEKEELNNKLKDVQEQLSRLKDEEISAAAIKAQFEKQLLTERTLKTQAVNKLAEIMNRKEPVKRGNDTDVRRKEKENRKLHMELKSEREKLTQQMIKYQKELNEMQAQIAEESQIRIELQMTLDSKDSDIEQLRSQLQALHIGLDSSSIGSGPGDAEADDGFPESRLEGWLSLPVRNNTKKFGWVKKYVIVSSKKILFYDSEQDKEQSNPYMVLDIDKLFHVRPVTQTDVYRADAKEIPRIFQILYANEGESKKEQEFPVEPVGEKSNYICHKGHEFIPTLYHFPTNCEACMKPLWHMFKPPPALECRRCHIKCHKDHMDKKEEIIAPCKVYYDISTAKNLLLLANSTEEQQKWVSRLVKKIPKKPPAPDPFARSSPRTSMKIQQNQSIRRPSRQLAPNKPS

SMILES | IC50 [nM]
[H][C@]1(c2n[nH]c(=O)c3ccccc32)C[C@]2(C[C@@H](NC(=O)c3ccc(C(F)(F)F)cn3)C2)C1 (stereo partly drawn) [Example 370, N-((aR)-6-(4-oxo-3,4-dihydrophthalazin-1-yl)spiro[3.3]heptan-2-yl)-5-(trifluoromethyl) picolinamide] | 5.1 to 15
[H][C@]1(c2n[nH]c(=O)c3ccccc32)C[C@]2(C[C@@H](NC(=O)c3ccc(C#N)c(C)n3)C2)C1 (stereo partly drawn) [Example 371, 5-cyano-6-methyl-N-((aR)-6-(4-oxo-3,4-dihydrophthalazin-1-yl)spiro[3.3]heptan-2-yl)picolinamide] | 15.1 to 100
[H][C@]1(c2n[nH]c(=O)c3ccccc32)C[C@]2(C[C@@H](NC(=O)c3[nH]c4c(OC)cccc4c3C)C2)C1 (stereo partly drawn) [Example 372, 7-methoxy-3-methyl-N-((aR)-6-(4-oxo-3,4-dihydrophthalazin-1-yl)spiro[3.3]heptan-2-yl)-1H-indole-2-carboxamide] | 15.1 to 100
[H][C@]1(c2n[nH]c(=O)c3ccccc32)C[C@]2(C[C@@H](NC(=O)c3ccc4c(cnn4C)c3)C2)C1 (stereo partly drawn) [Example 373, 1-methyl-N-((aR)-6-(4-oxo-3,4-dihydrophthalazin-1-yl)spiro[3.3]heptan-2-yl)-1H-indazole-5-carboxamide] | 15.1 to 100
[H][C@]1(c2n[nH]c(=O)c3ccccc32)C[C@]2(C[C@@H](NC(=O)c3cn4ccc(Br)cc4n3)C2)C1 (stereo partly drawn) [Example 374, 7-bromo-N-((aR)-6-(4-oxo-3,4-dihydrophthalazin-1-yl)spiro[3.3]heptan-2-yl)imidazo[1,2-a]pyridine-2-carboxamide] | 15.1 to 100
[H][C@]1(c2n[nH]c(=O)c3ccccc32)C[C@]2(C[C@@H](NC(=O)c3ccc(Br)cn3)C2)C1 (stereo partly drawn) [Example 375, 5-bromo-N-((aR)-6-(4-oxo-3,4-dihydrophthalazin-1-yl)spiro[3.3]heptan-2-yl)picolinamide] | 15.1 to 100
[H][C@]1(c2n[nH]c(=O)c3ccccc32)C[C@]2(C[C@@H](NC(=O)c3cn4ccccc4n3)C2)C1 (stereo partly drawn) [Example 377, N-((aR)-6-(4-oxo-3,4-dihydrophthalazin-1-yl)spiro[3.3]heptan-2-yl)imidazo[1,2-a]pyridine-2-carboxamide] | 15.1 to 100
[H][C@]1(c2n[nH]c(=O)c3ccccc32)C[C@]2(C[C@@H](NC(=O)c3cnc4cc(N5CCN(C)CC5)ccn34)C2)C1 (stereo partly shown) [Example 378] | 0.2 to 2
[H][C@]1(c2n[nH]c(=O)c3ccccc32)C[C@]2(C[C@@H](NC(=O)c3cnc4cc(C#N)ccn34)C2)C1 (stereo partly drawn) [Example 379, 7-cyano-N-((aR)-6-(4-oxo-3,4-dihydrophthalazin-1-yl)spiro[3.3]heptan-2-yl)imidazo[1,2-a]pyridine-3-carboxamide] | 5.1 to 15
[H][C@]1(c2n[nH]c(=O)c3ccccc32)C[C@]2(C[C@@H](NC(=O)c3cnc4c(C#N)cccn34)C2)C1 (stereo partly drawn) [Example 380, 8-cyano-N-((aR)-6-(4-oxo-3,4-dihydrophthalazin-1-yl)spiro[3.3]heptan-2-yl)imidazo[1,2-a]pyridine-3-carboxamide] | 5.1 to 15
[H][C@]1(c2n[nH]c(=O)c3ccccc32)C[C@]2(C[C@@H](NC(=O)c3cnc4c(C(F)(F)F)cccn34)C2)C1 (stereo partly drawn) [Example 381, N-((aR)-6-(4-oxo-3,4-dihydrophthalazin-1-yl)spiro[3.3]heptan-2-yl)-8-(trifluoro-methyl)imidazo[1,2-a]pyridine-3-carboxamide] | 2.01 to 5
[H][C@]1(c2n[nH]c(=O)c3ccccc32)C[C@]2(C[C@@H](NC(=O)c3cnc4c(Cl)cccn34)C2)C1 (stereo partly drawn) [Example 382, 8-chloro-N-((aR)-6-(4-oxo-3,4-dihydrophthalazin-1-yl)spiro[3.3]heptan-2-yl)imidazo[1,2-a]pyridine-3-carboxamide] | 2.01 to 5
[H][C@]1(c2n[nH]c(=O)c3ccccc32)C[C@]2(C[C@@H](NC(=O)c3cnc4cc(-c5ccccc5)ccn34)C2)C1 (stereo partly drawn) [Example 383, N-((aR)-6-(4-oxo-3,4-dihydrophthalazin-1-yl)spiro[3.3]heptan-2-yl)-7-phenylimidazo[1,2-a]pyridine-3-carboxamide] | 0.2 to 2
